Measured values from US20250129430A1, “HIGH ATP-AFFINITY PROTEIN AS THERAPEUTIC TARGET FOR INTRACTABLE CANCER MOLECULAR SUBTYPES AND INHIBITOR THEREOF” (VeraVerse Co., Ltd., priority 2021, published 2025).

Experiments:
Experiment in all cases: Cell viability drug screen, 12-point dose-response AUC
Format in all cases: cell-based, human
SNU620 = SNU620 cells; 72 hours
Method in brief: (§1)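 AUC comes from 12-point half-log dose–response curves, normalized to DMSO-treated cells and integrated trapezoidally, repeats averaged. Luminescent viability read after 72 h compound exposure at 37 °C; cells plated 5×10^3 per well 24 h before dosing.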

NCI_N87 = NCI_N87 cells; 72 hours
Method in brief: as §1

YCC3 = YCC3 cells; 72 hours
Method in brief: as §1

SNU668 = SNU668 cells (SEM subtype); 72 hours
Method in brief: as §1

YCC2 = YCC2 cells; 72 hours
Method in brief: as §1

KATO3 = KATO3 cells; 72 hours
Method in brief: as §1

MKN45 = MKN45 cells (non-SEM subtype); 72 hours
Method in brief: (§2)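 Viability: luminescence (Glo kit, 15 min RT), normalized to 0.5% DMSO vehicle. Dosing: half-log, 12 concentrations, 72 h. Cells: 5×10^3/well, treated 24 h after plating. Value: trapezoidal AUC, mean of repeats.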

MKN28 = MKN28 cells; 72 hours
Method in brief: as §1

NCC24 = NCC24 cells; 72 hours
Method in brief: as §1

NCC59 = NCC59 cells; 72 hours
Method in brief: as §1

YCC11 = YCC11 cells (SEM subtype); 72 hours
Method in brief: as §1

SNU638 = SNU638 cells; 72 hours
Method in brief: as §1

SNU1750 = SNU1750 cells (SEM subtype); 72 hours
Method in brief: as §1

OCUM1 = OCUM1 cells; 72 hours
Method in brief: as §1

SNU1967 = SNU1967 cells; 72 hours
Method in brief: as §1

MKN1 = MKN1 cells; 72 hours
Method in brief: as §1

SNU719 = SNU719 cells; 72 hours
Method in brief: as §2

Hs746T = Hs746T cells (SEM subtype); 72 hours
Method in brief: as §1

SNU601 = SNU601 cells; 72 hours
Method in brief: as §1

SNU16 = SNU16 cells; 72 hours
Method in brief: as §1

SNU216 = SNU216 cells (non-SEM subtype); 72 hours
Method in brief: as §2

SNU1 = SNU1 cells; 72 hours
Method in brief: as §1

NCC20 = NCC20 cells; 72 hours
Method in brief: as §1

AGS = AGS cells (non-SEM subtype); 72 hours
Method in brief: as §2

MKN74 = MKN74 cells; 72 hours
Method in brief: as §2

SK4 = SK4 cells (SEM subtype); 72 hours
Method in brief: as §1

NCC19 = NCC19 cells; 72 hours
Method in brief: as §1

SNU484 = SNU484 cells (SEM subtype); 72 hours
Method in brief: as §1

FU97 = tested on: FU97; set-up: Average Area Under the Viability Curve (AUC), AUC norm value: scale not given here; conditions: FU97 cells; 72 hours
Method in brief: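 Trapezoidal AUC of a 12-point, DMSO-normalized dose-response curve. Luminescent viability was measured after 72 h of exposure at 37° C to half-log serial dilutions (0.5% DMSO control), dosed 24 h after plating FU97 cells at 5×10^3 per well.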

| Compound | Average Area Under the Viability Curve (AUC), AUC norm value (SNU620) | Average Area Under the Viability Curve (AUC), AUC norm value (NCI_N87) | Average Area Under the Viability Curve (AUC), AUC norm value (YCC3) | Average Area Under the Viability Curve (AUC), AUC norm value (SNU668) | Average Area Under the Viability Curve (AUC), AUC norm value (YCC2) | Average Area Under the Viability Curve (AUC), AUC norm value (KATO3) | Average Area Under the Viability Curve (AUC), AUC norm value (MKN45) | Average Area Under the Viability Curve (AUC), AUC norm value (MKN28) | Average Area Under the Viability Curve (AUC), AUC norm value (NCC24) | Average Area Under the Viability Curve (AUC), AUC norm value (NCC59) | Average Area Under the Viability Curve (AUC), AUC norm value (YCC11) | Average Area Under the Viability Curve (AUC), AUC norm value (SNU638) | Average Area Under the Viability Curve (AUC), AUC norm value (SNU1750) | Average Area Under the Viability Curve (AUC), AUC norm value (OCUM1) | Average Area Under the Viability Curve (AUC), AUC norm value (SNU1967) | Average Area Under the Viability Curve (AUC), AUC norm value (MKN1) | Average Area Under the Viability Curve (AUC), AUC norm value (SNU719) | Average Area Under the Viability Curve (AUC), AUC norm value (Hs746T) | Average Area Under the Viability Curve (AUC), AUC norm value (SNU601) | Average Area Under the Viability Curve (AUC), AUC norm value (SNU16) | other results |
| --- | --- | --- | --- | --- | --- | --- | --- | --- | --- | --- | --- | --- | --- | --- | --- | --- | --- | --- | --- | --- | --- |
| O=C(/C=C/c1cccnc1)NCCCCC1CCN(C(=O)c2ccccc2)CC1 [APO866 (FK866), APO866] | 0.3488 | 0.8343 | 1.423 | −3.304 | 1.331 | 1.553 | 0.6191 | −6.855 | −0.07585 | 0.7919 | −2.215 | 0.6032 | −3.767 | 0.949 | −3.653 | −5.502 | 1.275 | −4.382 | 4.976 | −4.562 | Average Area Under the Viability Curve (AUC), AUC norm value (SNU216): −5.897; Average Area Under the Viability Curve (AUC), AUC norm value (SNU1): 0.9726; Average Area Under the Viability Curve (AUC), AUC norm value (NCC20): 2.35; Average Area Under the Viability Curve (AUC), AUC norm value (AGS): 0; Average Area Under the Viability Curve (AUC), AUC norm value (MKN74): −6.53; Average Area Under the Viability Curve (AUC), AUC norm value (SK4): 0.7403; Average Area Under the Viability Curve (AUC), AUC norm value (NCC19): −4.01; Average Area Under the Viability Curve (AUC), AUC norm value (SNU484): −6.823; Average Area Under the Viability Curve (AUC), AUC norm value (FU97): −3.149 |
| CC(C)(C)c1ccc(C(O)CCCN2CCC(C(O)(c3ccccc3)c3ccccc3)CC2)cc1 (centres unmarked) [Terfenadine] | 0.4918 | 1.465 | 1.423 | −0.5647 | 0.4862 | 0.4901 | −0.5441 | −0.2901 | −2.355 | 2.3563 | −0.996 | −0.8091 | −0.05758 | 1.032 | −1.065 | −0.8127 | 1.059 | −0.3246 | 2.641 | 0 | Average Area Under the Viability Curve (AUC), AUC norm value (SNU216): 1.499; Average Area Under the Viability Curve (AUC), AUC norm value (SNU1): 1.34; Average Area Under the Viability Curve (AUC), AUC norm value (NCC20): −1.029; Average Area Under the Viability Curve (AUC), AUC norm value (AGS): −1.278; Average Area Under the Viability Curve (AUC), AUC norm value (MKN74): −1.589; Average Area Under the Viability Curve (AUC), AUC norm value (SK4): −0.8713; Average Area Under the Viability Curve (AUC), AUC norm value (NCC19): 3.135; Average Area Under the Viability Curve (AUC), AUC norm value (SNU484): 0.06057; Average Area Under the Viability Curve (AUC), AUC norm value (FU97): 1.163 |
| COc1cccc2c1C(=O)c1c(O)c3c(c(O)c1C2=O)C[C@@](O)(C(=O)CO)C[C@@H]3O[C@H]1C[C@H](N)[C@H](O)[C@H](C)O1 [Doxorubicin (Adriamycin), Doxorubicin] | −0.2009 | 6.891 | 2.8776 | −0.3909 | 1.4121 | 7.9338 | 2.505 | 2.98 | −0.6126 | 1.231 | −1.877 | −0.3342 | −0.9576 | 0.6788 | −0.8787 | −0.2016 | 4.66 | −0.08449 | 4.481 | −0.0398 | Average Area Under the Viability Curve (AUC), AUC norm value (SNU216): 0.7466; Average Area Under the Viability Curve (AUC), AUC norm value (SNU1): 0; Average Area Under the Viability Curve (AUC), AUC norm value (NCC20): −0.4879; Average Area Under the Viability Curve (AUC), AUC norm value (AGS): −1.081; Average Area Under the Viability Curve (AUC), AUC norm value (MKN74): 1.522; Average Area Under the Viability Curve (AUC), AUC norm value (SK4): 0.213; Average Area Under the Viability Curve (AUC), AUC norm value (NCC19): 2.867; Average Area Under the Viability Curve (AUC), AUC norm value (SNU484): −0.8418; Average Area Under the Viability Curve (AUC), AUC norm value (FU97): −1.237 |
| Nc1nc(F)nc2c1ncn2[C@@H]1O[C@H](COP(=O)(O)O)[C@@H](O)[C@@H]1O [Fludarabine Phosphate (Fludara), Fludarabine Phosphate] | −2.289 | −0.06169 | 0 | −1.511 | −0.7765 | 1.165 | −1.029 | 0.00328 | 1.037 | 1.479 | −0.6417 | 0.5006 | 1.972 | −0.3967 | 2.186 | 0.9748 | 2.046 | 1.97 | −0.5439 | −0.44 | Average Area Under the Viability Curve (AUC), AUC norm value (SNU216): 1.771; Average Area Under the Viability Curve (AUC), AUC norm value (SNU1): −0.7644; Average Area Under the Viability Curve (AUC), AUC norm value (NCC20): −2.507; Average Area Under the Viability Curve (AUC), AUC norm value (AGS): −2.783; Average Area Under the Viability Curve (AUC), AUC norm value (MKN74): −0.1731; Average Area Under the Viability Curve (AUC), AUC norm value (SK4): −1.653; Average Area Under the Viability Curve (AUC), AUC norm value (NCC19): 2.411; Average Area Under the Viability Curve (AUC), AUC norm value (SNU484): 1.309; Average Area Under the Viability Curve (AUC), AUC norm value (FU97): 2.928 |
